We go through 3 compounds from ChEMBL document CHEMBL1133226, “Combinatorial diversification of indinavir: in vivo mixture dosing of an HIV protease inhibitor library” (Bioorg Med Chem Lett, 2000).

One assay has as its system MT4. The assay is described as follows: Compound was tested in vitro for inhibition of spread of viral infection in MT-4 human T-lymphoid cells infected with the IIIb isolate. In kind it is functional. To be noted: read-out: CIC95.
Assay [1] has as its target Human immunodeficiency virus type 1 protease (Human immunodeficiency virus 1, UniProt Q72874). The assay is described as follows: In vitro inhibitory concentration to prevent cleavage of a substrate by the protease enzyme.

Consider `CC(C)(C)NC(=O)[C@@H]1CN(Cc2ccc(Cl)c(Cl)c2)CCN1C[C@@H](O)C[C@@H](Cc1ccccc1)C(=O)N[C@H]1c2ccccc2C[C@H]1O`, for which the IC95 in the assay on MT4 amounted to 200 nM. Further, in assay [1], half-maximal inhibition (IC50) required 1.1 nM.
For the compound `CC(C)(C)NC(=O)[C@@H]1CN(S(C)(=O)=O)CCN1C[C@@H](O)C[C@@H](Cc1ccccc1)C(=O)N[C@H]1c2ccccc2C[C@H]1O`, the IC95 with MT4 amounted to 400 nM. Further, half-maximal inhibition in assay [1] (IC50) was put at 1.6 nM.
Regarding `CC(C)(C)NC(=O)[C@@H]1CN(Cc2cccnc2)CCN1C[C@@H](O)C[C@@H](Cc1ccccc1)C(=O)N[C@H]1c2ccccc2C[C@H]1O` [INDINAVIR], in the assay on MT4, the IC95 came out at 50.5 nM.
